Test results as given in PubChem BioAssay (NCI).
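Assay format: 96-well plates, 48-hour exposure. TGI marks complete inhibition of growth.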

Assays:
Assay in all cases: inhibition of tumour cell growth, NCI panel, 48 h
RPMI-8226 leukemia = system: RPMI-8226 leukemia
SN12C renal = system: SN12C renal
MOLT-4 leukemia = system: MOLT-4 leukemia
CAKI-1 renal = system: CAKI-1 renal
HS 578T breast = system: HS 578T breast
HT29 colon = system: HT29 colon
NCI-H522 lung = system: NCI-H522 lung
M14 melanoma = system: M14 melanoma
SF-295 CNS = system: SF-295 CNS
A549 NSCLC = system: A549 NSCLC
CCRF-CEM leukemia = system: CCRF-CEM leukemia
IGROV1 ovarian = system: IGROV1 ovarian
MDA-N = system: MDA-N
A498 renal = system: A498 renal
OVCAR-3 ovarian = system: OVCAR-3 ovarian
T-47D breast = system: T-47D breast
NCI-H226 lung = system: NCI-H226 lung
MALME-3M melanoma = system: MALME-3M melanoma
UACC-62 melanoma = system: UACC-62 melanoma
SF-268 CNS = system: SF-268 CNS
K-562 leukemia = system: K-562 leukemia
NCI/ADR-RES ovarian = system: NCI/ADR-RES ovarian
MDA-MB-435 = system: MDA-MB-435
UO-31 renal = system: UO-31 renal
SK-MEL-28 melanoma = system: SK-MEL-28 melanoma
HOP-92 NSCLC = system: HOP-92 NSCLC
HCT-116 colon = system: HCT-116 colon
MDA-MB-231 breast = system: MDA-MB-231 breast
EKVX NSCLC = system: EKVX NSCLC
OVCAR-4 ovarian = system: OVCAR-4 ovarian
SNB-19 CNS = system: SNB-19 CNS
UACC-257 melanoma = system: UACC-257 melanoma
OVCAR-8 ovarian = system: OVCAR-8 ovarian
SK-MEL-5 melanoma = system: SK-MEL-5 melanoma
HOP-62 NSCLC = system: HOP-62 NSCLC
SNB-75 CNS = system: SNB-75 CNS
KM12 colon = system: KM12 colon
SR leukemia = system: SR leukemia
OVCAR-5 ovarian = system: OVCAR-5 ovarian
786-0 renal = system: 786-0 renal
PC-3 prostate = system: PC-3 prostate
SK-OV-3 ovarian = system: SK-OV-3 ovarian
COLO 205 colon = system: COLO 205 colon
NCI-H23 lung = system: NCI-H23 lung
TK-10 renal = system: TK-10 renal
BT-549 breast = system: BT-549 breast
U251 CNS = system: U251 CNS
RXF 393 renal = system: RXF 393 renal
LOX IMVI melanoma = system: LOX IMVI melanoma
ACHN renal = system: ACHN renal
DU-145 prostate = system: DU-145 prostate
HCT-15 colon = system: HCT-15 colon
SW-620 colon = system: SW-620 colon
SK-MEL-2 melanoma = system: SK-MEL-2 melanoma
SF-539 CNS = system: SF-539 CNS
HCC-2998 colon = system: HCC-2998 colon
HL-60(TB) leukemia = system: HL-60(TB) leukemia
NCI-H460 lung = system: NCI-H460 lung

Compound `Cc1ccc(N=Nc2c(O)c(C(=O)O)cc3ccccc23)c(S(=O)(=O)O)c1` has a TGI (RPMI-8226 leukemia) of over 100 µM, a TGI (SN12C renal) of over 100 µM and a TGI (MOLT-4 leukemia) of over 100 µM. It also gave a TGI (CAKI-1 renal) of over 100 µM, a TGI (HS 578T breast) of over 100 µM and a TGI (HT29 colon) of over 100 µM. For the same compound, the TGI (NCI-H522 lung) was over 100 µM, the TGI (M14 melanoma) was over 100 µM and the TGI (SF-295 CNS) was over 100 µM. For the same compound, the TGI (A549 NSCLC) was over 100 µM, the TGI (CCRF-CEM leukemia) was over 100 µM and the TGI (IGROV1 ovarian) was over 100 µM. It also gave a TGI (MDA-N) of over 100 µM, a TGI (A498 renal) of over 100 µM and a TGI (OVCAR-3 ovarian) of over 100 µM. It also gave a TGI (T-47D breast) of over 100 µM, a TGI (NCI-H226 lung) of over 100 µM and a TGI (MALME-3M melanoma) of over 100 µM. It also gave a TGI (UACC-62 melanoma) of over 100 µM, a TGI (SF-268 CNS) of over 100 µM and a TGI (K-562 leukemia) of over 100 µM. For the same compound, the TGI (NCI/ADR-RES ovarian) was over 100 µM, the TGI (MDA-MB-435) was over 100 µM and the TGI (UO-31 renal) was over 100 µM. The TGI (SK-MEL-28 melanoma) was over 100 µM, the TGI (HOP-92 NSCLC) was over 100 µM and the TGI (HCT-116 colon) was over 100 µM. The TGI (MDA-MB-231 breast) was over 100 µM, the TGI (EKVX NSCLC) was over 100 µM and the TGI (OVCAR-4 ovarian) was over 100 µM. The TGI (SNB-19 CNS) was over 100 µM, the TGI (UACC-257 melanoma) was over 100 µM and the TGI (OVCAR-8 ovarian) was over 100 µM. It also gave a TGI (SK-MEL-5 melanoma) of over 100 µM, a TGI (HOP-62 NSCLC) of over 100 µM and a TGI (SNB-75 CNS) of over 100 µM. For the same compound, the TGI (KM12 colon) was over 100 µM, the TGI (SR leukemia) was over 100 µM and the TGI (OVCAR-5 ovarian) was over 100 µM. It also gave a TGI (786-0 renal) of over 100 µM, a TGI (PC-3 prostate) of over 100 µM and a TGI (SK-OV-3 ovarian) of over 100 µM. The TGI (COLO 205 colon) was over 100 µM, the TGI (NCI-H23 lung) was over 100 µM and the TGI (TK-10 renal) was over 100 µM. The TGI (BT-549 breast) was over 100 µM, the TGI (U251 CNS) was over 100 µM and the TGI (RXF 393 renal) was over 100 µM. It also gave a TGI (LOX IMVI melanoma) of over 100 µM, a TGI (ACHN renal) of over 100 µM and a TGI (DU-145 prostate) of over 100 µM. For the same compound, the TGI (HCT-15 colon) was over 100 µM, the TGI (SW-620 colon) was over 100 µM and the TGI (SK-MEL-2 melanoma) was over 100 µM.
In the case of `COCC1OC(OC2OCC3OC4(OCC(O)(C(C)OC)C5OCOC54)OC3C2OC)C(OC)C(O)C1OC1OC(C)C(OC)C(OC2OC(C)C3OC4(CC(O)C(OC5CC(OC6CC(C)([N+](=O)[O-])C(OC)C(C)O6)C(OC(=O)c6c(C)c(Cl)c(O)c(Cl)c6OC)C(C)O5)C(C)O4)OC3(C)C2O)C1O` (stereo not given), the TGI (RPMI-8226 leukemia) was over 100 µM, the TGI (SN12C renal) was over 100 µM and the TGI (MOLT-4 leukemia) was over 100 µM. It also gave a TGI (CAKI-1 renal) of over 100 µM, a TGI (HS 578T breast) of over 100 µM and a TGI (HT29 colon) of over 100 µM. It also gave a TGI (NCI-H522 lung) of over 100 µM, a TGI (M14 melanoma) of over 100 µM and a TGI (SF-295 CNS) of over 100 µM. For the same compound, the TGI (A549 NSCLC) was over 100 µM, the TGI (CCRF-CEM leukemia) was over 100 µM and the TGI (IGROV1 ovarian) was over 100 µM. For the same compound, the TGI (MDA-N) was over 100 µM, the TGI (A498 renal) was over 100 µM and the TGI (OVCAR-3 ovarian) was over 100 µM. It also gave a TGI (T-47D breast) of over 100 µM, a TGI (NCI-H226 lung) of over 100 µM and a TGI (UACC-62 melanoma) of over 100 µM. For the same compound, the TGI (SF-268 CNS) was over 100 µM, the TGI (K-562 leukemia) was over 100 µM and the TGI (NCI/ADR-RES ovarian) was over 100 µM. The TGI (MDA-MB-435) was over 100 µM, the TGI (UO-31 renal) was over 100 µM and the TGI (SK-MEL-28 melanoma) was over 100 µM. The TGI (HOP-92 NSCLC) was over 100 µM, the TGI (HCT-116 colon) was over 100 µM and the TGI (MDA-MB-231 breast) was over 100 µM. It also gave a TGI (EKVX NSCLC) of over 100 µM, a TGI (OVCAR-4 ovarian) of over 100 µM and a TGI (SNB-19 CNS) of over 100 µM. It also gave a TGI (UACC-257 melanoma) of over 100 µM, a TGI (OVCAR-8 ovarian) of over 100 µM and a TGI (SK-MEL-5 melanoma) of over 100 µM. The TGI (HOP-62 NSCLC) was over 100 µM, the TGI (SNB-75 CNS) was over 100 µM and the TGI (KM12 colon) was over 100 µM. It also gave a TGI (SR leukemia) of over 100 µM, a TGI (OVCAR-5 ovarian) of over 100 µM and a TGI (SF-539 CNS) of over 100 µM. For the same compound, the TGI (786-0 renal) was over 100 µM, the TGI (HCC-2998 colon) was over 100 µM and the TGI (PC-3 prostate) was over 100 µM. For the same compound, the TGI (SK-OV-3 ovarian) was over 100 µM, the TGI (COLO 205 colon) was over 100 µM and the TGI (NCI-H23 lung) was over 100 µM. The TGI (TK-10 renal) was over 100 µM, the TGI (BT-549 breast) was over 100 µM and the TGI (U251 CNS) was over 100 µM. It also gave a TGI (HL-60(TB) leukemia) of over 100 µM, a TGI (RXF 393 renal) of over 100 µM and a TGI (LOX IMVI melanoma) of over 100 µM. The TGI (ACHN renal) was over 100 µM, the TGI (DU-145 prostate) was over 100 µM and the TGI (NCI-H460 lung) was over 100 µM. For the same compound, the TGI (HCT-15 colon) was over 100 µM, the TGI (SW-620 colon) was over 100 µM and the TGI (SK-MEL-2 melanoma) was over 100 µM.
Compound `O=c1cc(NNc2ccc(F)cc2)[nH]c(=O)[nH]1` has a TGI (RPMI-8226 leukemia) of over 100 µM, a TGI (SN12C renal) of 37.7 µM and a TGI (MOLT-4 leukemia) of 59.3 µM. The TGI (HS 578T breast) was 90.8 µM, the TGI (HT29 colon) was 33.9 µM and the TGI (M14 melanoma) was 21 µM. For the same compound, the TGI (SF-295 CNS) was over 100 µM, the TGI (A549 NSCLC) was 34.7 µM and the TGI (CCRF-CEM leukemia) was 74.7 µM. It also gave a TGI (IGROV1 ovarian) of 30.2 µM, a TGI (MDA-N) of 30.8 µM and a TGI (A498 renal) of over 100 µM. For the same compound, the TGI (OVCAR-3 ovarian) was 32.7 µM, the TGI (T-47D breast) was 71 µM and the TGI (NCI-H226 lung) was 57.4 µM. For the same compound, the TGI (MALME-3M melanoma) was 43.8 µM, the TGI (UACC-62 melanoma) was 33.5 µM and the TGI (SF-268 CNS) was 53.8 µM. For the same compound, the TGI (K-562 leukemia) was 81.2 µM, the TGI (NCI/ADR-RES ovarian) was 88.7 µM and the TGI (UO-31 renal) was 31.8 µM. For the same compound, the TGI (SK-MEL-28 melanoma) was 33.3 µM, the TGI (HCT-116 colon) was 34.1 µM and the TGI (MDA-MB-231 breast) was 33.4 µM. The TGI (EKVX NSCLC) was 32.2 µM, the TGI (OVCAR-4 ovarian) was 21.4 µM and the TGI (SNB-19 CNS) was 37.1 µM. It also gave a TGI (UACC-257 melanoma) of over 100 µM, a TGI (OVCAR-8 ovarian) of 53.3 µM and a TGI (SK-MEL-5 melanoma) of 67.1 µM. It also gave a TGI (HOP-62 NSCLC) of 32.7 µM, a TGI (SNB-75 CNS) of 31.1 µM and a TGI (KM12 colon) of 24 µM. For the same compound, the TGI (SR leukemia) was over 100 µM, the TGI (OVCAR-5 ovarian) was 33.3 µM and the TGI (SF-539 CNS) was 44.5 µM. It also gave a TGI (786-0 renal) of 25.5 µM, a TGI (HCC-2998 colon) of 51.3 µM and a TGI (PC-3 prostate) of 32.5 µM. It also gave a TGI (SK-OV-3 ovarian) of over 100 µM, a TGI (COLO 205 colon) of 30.9 µM and a TGI (NCI-H23 lung) of 82.7 µM. It also gave a TGI (TK-10 renal) of 36.8 µM, a TGI (BT-549 breast) of 26.7 µM and a TGI (U251 CNS) of 40.8 µM. For the same compound, the TGI (HL-60(TB) leukemia) was over 100 µM, the TGI (RXF 393 renal) was 34.3 µM and the TGI (LOX IMVI melanoma) was over 100 µM. For the same compound, the TGI (ACHN renal) was 31.7 µM, the TGI (DU-145 prostate) was over 100 µM and the TGI (NCI-H460 lung) was 38.7 µM. It also gave a TGI (HCT-15 colon) of 31.7 µM, a TGI (SW-620 colon) of 33.1 µM and a TGI (SK-MEL-2 melanoma) of 45.6 µM.
